Patent US20260284082A1, “TARGETING THE PANX1-P2Y2R-TRPV4 PATHWAY TO TREAT LUNG ISCHEMIA-REPERFUSION INJURY” (UNIVERSITY OF VIRGINIA PATENT FOUNDATION, priority 2023, published 2026)

What was measured:
Type in all cases: cell-based
TRPV4EC channels = assay: TRPV4 sparklet activity in human PMVECs exposed to acute HR; design: dose or concentration left out as unconfirmed; conditions: 1 h hypoxia + 10 min reoxygenation
Protocol: TRPV4 sparklets were assessed as increases in fluorescence relative to baseline fluorescence, obtained by averaging 10 quiescent images prior to stimulation. TRPV4 Ca^2+ sparklets were assessed based on previously established methods.^9,11 Average TRPV4 sparklet activity is defined as NPO, where N is the number of TRPV4 channels per site and PO is the open-state probability of the channel. NPO was calculated using the Single Channel Search module of Clampfit. quantal amplitudes derived from all-points histograms (0.3 AF/F0 for Fluo-4-loaded Pas),^12 and the following equation: NPO=(Tlevel1+2Tlevel2+3Tlevel3+4Tlevel4)/Ttotal, where T represents the dwell time at each quantal level and Ttotal is the total recording duration. […]
(§1) Ca^2+ imaging in human and mouse PMVECs was performed using an Andor Dragonfly 505 spinning-disk confocal imaging system with Borealis illumination and an Integrated Laser Engine solid-state laser source (Andor Technology, Belfast, UK), coupled with a Leica Dmi8 inverted microscope (Leica) and 63× objective (NA 1.47)^13 Images were acquired at 30 frames per second using Fusion 2.3 (Oxford Instruments, Belfast, UK) and an electron-multiplying CCD camera (iXon888). Calbryte 520 AM was excited at 488 nm, and emitted fluorescence was captured using a 525/50 bandpass emission filter. […]

human PMVECs = assay: Baseline Ca2+ signaling in human PMVECs exposed to acute HR (Calbryte 520); conditions: ARC 10 μM; 1 h hypoxia + 10 min reoxygenation
Protocol: Exposure of PMVECs to acute HR and Ca^2+ imaging in PMVECs: Primary human and murine pulmonary microvascular endothelial cells (PMVECs; Cell Biologics, Chicago, IL) were cultured on gelatin-coated flasks in endothelial cell medium (Cell Biologics). For acute HR exposure, PMVECs were washed with PBS, and serum-free/glucose-free endothelial cell medium was added. PMVECs were placed in a humidified, sealed hypoxia chamber (Billups-Rothenberg, San Diego, CA), whereupon the chamber was flushed with 95% nitrogen/5% CO2 for 20 minutes and placed in a 37° C. incubator to initiate hypoxia. After 1 hour of hypoxia, the chamber was opened to terminate hypoxia. […]
as §1

[1] = tested on: murine primary pulmonary microvascular endothelial cells (PMVECs); assay: Proinflammatory cytokine release from murine PMVECs after hypoxia-reoxygenation; conditions: 6 h hypoxia + 4 h reoxygenation, AR-C 10 mM, 5 μM
Protocol: We used 6 hours hypoxia followed by 4 hours normoxia/reoxygenation (HR) in murine primary pulmonary microvascular endothelial cells (PMVECs) as a surrogate model of lung IR. Control cells were exposed to 10 hours normoxia (N). PMVECs were treated with vehicle or P2Y2R inhibitor AR-C ([…], 6 hrs). The concentrations of chemokine (C—X—C motif) ligand 1 (CXCL1) and monocvte chemoattractant protein-1 (MCP-1) in the culture media was measured using a mouse keratinocyte-derived chemokine (KC)/CXCL1 Quantikine ELISA kit (R&D Systems, Minneapolis, MN) and multiplex cytokine panel assay (Bio-Rad Laboratories, Hercules, CA), respectively. KC and MCP-1 levels were increased in PMVECs exposed to HR. Treatment of PMVECs with P2Y2R inhibitor AR-C reduced the levels of KC (FIG. 13A) and MCP-1 (FIG. 13B) in the culture media.

With `Cc1ccc2c(c1)C=Cc1cc(C)ccc1C2c1cn(Cc2ccc(C(=O)Nc3nn[nH]n3)o2)c(=O)[nH]c1=S` [ARC, AR-C 118925XX] the “HR-induced increase in TRPV4EC sparklets” value (TRPV4EC channels) was “blocked”, the “HR-induced increase in baseline endothelial Ca signaling” value (human PMVECs) was “blocked” and the “KC level in the culture media” value [1] was “reduced”. The “MCP-1 level in the culture media” value [1] was “reduced”.
